{"source": "patent US8592421B2", "about": "“Cyclic bioisosters of purine system derivatives and a pharmaceutical composition based thereon” (priority 2003, dated 2013)", "key": {"[1]": {"tested_on": "Ca^2+-dependent isoform NOC", "assay": "Morphine abstinence model: calcium-dependent NOC in liver", "assay_type": "in vivo, rats Wistar", "conditions": "administration of morphine (FIG. 13)"}, "[2]": {"assay": "Morphine abstinence model: thymus condition (mass, nitrites)", "assay_type": "in vivo, rats", "conditions": "Administration of morphine; control 230 ± 14", "description": "The spectrometric method is based the reaction of nitrites with the Griss reagent (a mixture of 2% solution of sulfanilamide and 0.2% N-(1-naphthyl)ethylene diamine. At the first step the nitrite reacts with sulfanilamide with formation of diazonium salt, and then with the second component to form azo dye with an adsorption maximum at 540 nm. For reduction of nitrates into nitrites, a fermentative method was used with bacterial reductase nitrate (Grisham M. B. et al., 1995). The samples of plasma and supernathant of the liver deproteinizated at 100° C. for 5 minutes incubated for 30 minutes at 37° C. in 50.0 mM of HEPES pH 7.4 in the presence of 0.2 unit/ml of Aspergillus reductase nitrate, 5.0 mkM of FAD and 0.1 mM of NAD-Ph. At the end of the reaction lactate dehydrogenase and pyruvate were added for isolation of NAD-Ph interfering with the Griss reaction. Then the Griss reagent was added and after 10-minute incubation the light absorption of the samples was measured at 540 nm. To amount of NOX^− was calculated using sodium nitrate as a standard.\nThe effect of the compounds according to the invention on the condition of the thymus of the rats was also investigated: a control group, an experimental group of morphinized animals and an experimental group of animals were first morphinized and then injected with the compounds according to the invention. The experiment was carried out similarly to that described above."}, "[3]": {"tested_on": "synthase of nitrogen oxide (NOC)", "assay": "Morphine abstinence model: activity of synthase of nitrogen oxide (NOC), radiometric [3H]L-citrulline method", "assay_type": "in vivo, rats Wistar", "conditions": "morphinized rats (FIG. 13)"}, "[4]": {"tested_on": "Ca^2+-independent isoform NOC", "assay": "Morphine abstinence model: calcium-independent NOC in liver", "assay_type": "in vivo, rats Wistar", "conditions": "administration of morphine (FIG. 13)"}}}
{"smiles": "CN1CC[C@]23c4c5ccc(O)c4O[C@H]2[C@@H](O)C=C[C@H]3[C@H]1C5", "note": "[Morphine, morphine, reference compound]", "values": [{"measurement": "activity of the calcium-dependent form NOC in the liver", "setting": "[1]", "result": "rise of activity"}, {"measurement": "Thymus mass", "setting": "[2]", "result": "145 ± 9", "unit": "mg"}, {"measurement": "total NOC activity in the liver compared to the control", "setting": "[3]", "result": "did not change"}, {"measurement": "activity of the calcium-independent form NOC in the liver", "setting": "[4]", "result": "decrease of activity"}]}
